Test results: PMC2989642 (The European journal of neuroscience, 2010)

What was measured:
[1] = target: α3β4 receptors (in the α5β2 KO) (Mus musculus, UniProt Q8R493+Q8R4G9); test: cell-based
[2] = target: α3β2 receptors (in the α5β4 KO) (Mus musculus, UniProt Q8R4G9+Q9ERK7); test: cell-based; type: cell-based
α3β2 receptors (in the α5β4 KO), sequence (Q8R4G9 26-499): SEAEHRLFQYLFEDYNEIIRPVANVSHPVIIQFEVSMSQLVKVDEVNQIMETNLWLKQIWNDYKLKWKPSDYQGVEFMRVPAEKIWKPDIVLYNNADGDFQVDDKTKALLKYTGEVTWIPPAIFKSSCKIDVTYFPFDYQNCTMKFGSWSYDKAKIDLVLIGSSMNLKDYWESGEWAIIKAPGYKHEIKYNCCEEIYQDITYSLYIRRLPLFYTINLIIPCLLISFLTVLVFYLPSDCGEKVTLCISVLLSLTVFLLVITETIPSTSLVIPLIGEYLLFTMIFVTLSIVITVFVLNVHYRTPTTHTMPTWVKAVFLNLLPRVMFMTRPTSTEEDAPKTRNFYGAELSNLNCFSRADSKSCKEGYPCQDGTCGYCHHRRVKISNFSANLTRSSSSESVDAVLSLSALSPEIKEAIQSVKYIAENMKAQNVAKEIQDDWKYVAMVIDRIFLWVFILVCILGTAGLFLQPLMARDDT
α3β2 receptors (in the α5β4 KO), sequence (Q9ERK7 26-501): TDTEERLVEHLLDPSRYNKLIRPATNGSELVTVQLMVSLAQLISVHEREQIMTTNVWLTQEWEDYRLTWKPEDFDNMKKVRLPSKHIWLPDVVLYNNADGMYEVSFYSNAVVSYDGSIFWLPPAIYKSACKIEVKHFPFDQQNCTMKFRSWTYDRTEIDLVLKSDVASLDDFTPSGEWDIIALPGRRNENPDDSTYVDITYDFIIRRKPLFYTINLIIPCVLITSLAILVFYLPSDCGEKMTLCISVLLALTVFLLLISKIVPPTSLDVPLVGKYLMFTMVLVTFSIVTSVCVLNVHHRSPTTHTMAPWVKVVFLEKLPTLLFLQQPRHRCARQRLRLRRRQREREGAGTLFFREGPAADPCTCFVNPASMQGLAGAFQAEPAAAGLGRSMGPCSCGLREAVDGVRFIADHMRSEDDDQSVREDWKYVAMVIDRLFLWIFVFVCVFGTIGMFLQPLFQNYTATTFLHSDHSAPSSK

α3β4 receptors (in the α5β2 KO), sequence (Q8R4G9 26-499): as the sequence (Q8R4G9 26-499) above
α3β4 receptors (in the α5β2 KO), sequence (Q8R493 21-495): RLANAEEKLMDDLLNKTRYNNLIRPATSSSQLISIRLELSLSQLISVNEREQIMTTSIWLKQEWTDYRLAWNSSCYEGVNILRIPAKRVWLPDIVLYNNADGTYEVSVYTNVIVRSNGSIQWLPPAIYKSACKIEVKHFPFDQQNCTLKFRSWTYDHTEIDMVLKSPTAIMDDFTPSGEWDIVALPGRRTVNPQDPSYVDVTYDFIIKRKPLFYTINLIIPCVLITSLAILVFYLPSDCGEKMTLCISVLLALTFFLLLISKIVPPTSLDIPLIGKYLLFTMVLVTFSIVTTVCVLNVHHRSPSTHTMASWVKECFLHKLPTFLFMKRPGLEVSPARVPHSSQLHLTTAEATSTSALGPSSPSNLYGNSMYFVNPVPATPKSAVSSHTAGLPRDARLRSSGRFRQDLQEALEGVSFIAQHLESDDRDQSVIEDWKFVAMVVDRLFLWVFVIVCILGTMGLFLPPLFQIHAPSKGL

α-conotoxin AuIB
recovery of the inhibition [1]: Fast and full recovery
effect on currents induced by 300 μM ACh [2]: did not affect
